Reference: patent US20090238792A1, “SUPPRESSION OF POSTOPERATIVE ILEUS” (University of Pittsburgh of the Commonwealth System of …, priority 2007, published 2009)

Columns and labels:
IL-6 mRNA = test: Real-time RT-PCR of muscularis IL-6 mRNA 3 hours postoperatively; type: in vivo, rat
Protocol: (§1) Age matched animals treated with vehicle (normal saline) or valine (263.5 mg/kg, osmotic control) at appropriate time points and at equal volumes served as controls.
(§2) The rodent intestine was subjected to a standardized degree of surgical manipulation as described previously (14). Rats were anesthetized by isoflurane inhalation and the abdomen was opened by a midline laparotomy. The cecum was eventrated and laid out onto a moist gauze. Then, the intestine was inspected along its length and gently compressed using moist cotton applicators. The midline incision was closed by two layers of continuous sutures. All operative procedures were performed under sterile conditions with the intestine being handled only by instruments and never touched directly. Animals were killed at specific time points postoperatively by isoflurane anesthesia inhalation overdose and heart incision.
(§3) mRNA Expression Analysis: Postoperative mediator mRNA expressions in the small intestinal muscularis were analyzed using SYBR Green two-step real-time RT-PCR as previously described, (N=4-6). […] Total mRNA extraction was performed using the guanidium-thiocyanate phenol-chloroform extraction method. Equal aliquots (200 ng) of total RNA from each sample, quantified by spectrophotometer, were processed for complimentary DNA (cDNA) synthesis. Primer sequences were used as described previously (tumor necrosis factor-a, TNF-a) (35), or designed according to published sequences 36-41, (GenBank accession numbers: NM_017008 [glyceraldehyde phosphate dehydrogenase (GAPDH)], AF233596 [cyclo-oxygenase-2 (COX-2)], NM_012967 [intercellular adhesion molecule-1 (ICAM-1)], M26744 [interleukin-6 (IL-6)] and NM_012611 [inducible nitric oxide synthase (iNOS)]), using Primer Express software (PE Applied Biosystems, Foster City, Calif.) and purchased from Life Technologies (Rockville, Md.). GAPDH was used as an endogenous control. The efficiency and equality of the real-time PCR primer pairs were determined by amplifying serial dilutions of muscularis cDNA. For each target gene different MgCl2 (3 to 5 mM) concentrations were tested to optimize the PCR amplification. […] Relative quantification was performed using the comparative CT method as described by Schmittgen et al. (42).
Methods: ACI-rats (180-220 g) underwent standardized surgical manipulation of the intestine. […] Postoperative mediator mRNA expression in the intestinal muscularis was determined by real-time RT PCR. […] Nitrite production was measured in muscularis cultures. In vivo transit of FITC-dextran was measured using geometric center analysis (GC). In vitro circular muscle contractility was assessed in a standard organ bath. […]

ICAM-1 mRNA = conditions: 3 hours postoperatively
Protocol: as §1, §2
as §3, with “amplification. Agarose gel electrophoretic analysis was used to verify the presence of a single product and that the amplified product corresponded to size predicted for the amplicon. The PCR reaction mixture was prepared using the SYBR Green PCR Core Reagents (PE Applied Biosystems, Foster City, Calif.). PCR conditions on an ABI PRISM 7700 Sequence Detection System (PE Applied Biosystems, Foster City, Calif.) were as recommended by the manufacturer. Each sample was estimated in duplicate.” for “amplification.”
(§4) Methods: ACI-rats (180-220 g) underwent standardized surgical manipulation of the intestine. […] Age matched animals treated with vehicle or valine (osmotic control) at appropriate time points and at equal volumes served as controls. […] Postoperative mediator mRNA expression in the intestinal muscularis was determined by real-time RT PCR. Leukocyte extravasation was investigated in muscularis whole-mounts. Nitrite production was measured in muscularis cultures. In vivo transit of FITC-dextran was measured using geometric center analysis (GC). In vitro circular muscle contractility was assessed in a standard organ bath. Statistical analysis: unpaired Student t test, p<0.05, mean±SEM.

TNF-α mRNA = conditions: 3 hours postoperatively
Protocol: as §1, §2
as §3, with “amplification. Agarose gel electrophoretic analysis was used to verify the presence of a single product and that the amplified product corresponded to size predicted for the amplicon. The PCR reaction mixture was prepared using the SYBR Green PCR Core Reagents (PE Applied Biosystems, Foster City, Calif.). PCR conditions on an ABI PRISM 7700 Sequence Detection System (PE Applied Biosystems, Foster City, Calif.) were as recommended by the manufacturer. Each sample was estimated in duplicate.” for “amplification.”
as §4

iNOS mRNA = conditions: 3 hours postoperatively
Protocol: as §1, §2
as §3, with “amplification. Agarose gel electrophoretic analysis was used to verify the presence of a single product and that the amplified product corresponded to size predicted for the amplicon. The PCR reaction mixture was prepared using the SYBR Green PCR Core Reagents (PE Applied Biosystems, Foster City, Calif.). PCR conditions on an ABI PRISM 7700 Sequence Detection System (PE Applied Biosystems, Foster City, Calif.) were as recommended by the manufacturer. Each sample was estimated in duplicate.” for “amplification.”
as §4

COX-2 mRNA = conditions: glycine 170 mg/kg, 3 hours postoperatively; SM 3.2-fold; not significant
Protocol: as §1
as §2, with “Animals were killed at specific time points postoperatively by isoflurane anesthesia inhalation overdose and heart incision.” left out
mRNA Expression Analysis: Postoperative mediator mRNA expressions in the small intestinal muscularis were analyzed using SYBR Green two-step real-time RT-PCR as previously described, (N=4-6). […] Equal aliquots (200 ng) of total RNA from each sample, quantified by spectrophotometer, were processed for complimentary DNA (cDNA) synthesis. […] The efficiency and equality of the real-time PCR primer pairs were determined by amplifying serial dilutions of muscularis cDNA. […] Relative quantification was performed using the comparative CT method as described by Schmittgen et al. (42).

[1] = system: C57Bl/6 mice with surgical manipulation (SM); conditions: SM+glycine 170 mg/kg, control=11.0±0.44, SM=4.1±0.18, SM+saline=4.1±0.5
Protocol: as §1

Question: How did the “IL-6 mRNA induction vs non-operated vehicle treated controls” value (IL-6 mRNA; glycine pretreatment, 3 hours postoperatively, manipulation alone 8521 fold) turn out when `NCC(=O)O` [glycine] was run?
Answer: 2742 fold

Question: And the “mediator mRNA levels in non-operated animals vs non-operated vehicle rats” value (IL-6 mRNA; non-operated glycine injected rats)?
Answer: did not differ

Question: And the “postoperative induction of IL-6 mRNA” value (IL-6 mRNA; surgically manipulated rats, 3 hours postoperatively)?
Answer: significantly attenuated

Question: And the “ICAM-1 mRNA induction vs non-operated vehicle treated controls” value (ICAM-1 mRNA; glycine pretreatment, manipulation alone 21 fold)?
Answer: 14 fold

Question: And the “postoperative induction of ICAM-1 mRNA” value (ICAM-1 mRNA; surgically manipulated rats)?
Answer: attenuation

Question: And the “TNF-α mRNA induction vs non-operated vehicle treated controls” value (TNF-α mRNA; glycine pretreatment, manipulation alone 3.4 fold)?
Answer: 1.9 fold

Question: What about the “postoperative induction of TNF-α mRNA” value (TNF-α mRNA; surgically manipulated rats) of the same molecule?
Answer: attenuation

Question: And the “surgical induction of iNOS mRNA” value (iNOS mRNA; SM vehicle 197.1-fold)?
Answer: significantly suppressed

Question: And the “iNOS mRNA induction vs non-operated vehicle treated controls” value (iNOS mRNA; glycine pretreatment, manipulation alone 197 fold)?
Answer: 17 fold

Question: And the “COX-2 mRNA postoperative upregulation” value (COX-2 mRNA)?
Answer: 2.3 fold

Question: And the “geometric center of gastrointestinal transit” value [1]?
Answer: 10.3±7
